The supplement of paper PMC6965134
± gives the standard deviation of the averaged measurements. Blank lines part the entries; values can stand above or below the compound they belong to.

Experiment: TIMS collisional cross section (CCS, N2) of the lipid ion; higher = larger ion cross section
Conditions: ionization mode: negative, one isomer drawn
Description: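 Lipid extracts of human plasma (NIST SRM 1950), mouse liver or HeLa cells were separated by nanoflow C18 LC (30 min gradient) and analysed by TIMS-PASEF on a timsTOF Pro. Ion mobility was calibrated with the Agilent tuning mix (negative mode ions) and converted to collisional cross sections (Mason–Schamp, N2).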
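Further: lipids from MTBE extraction, five replicate injections per sample, 100 ms TIMS ramp spanning 0.6–1.95 Vs/cm², lipid identity assigned from PASEF MS/MS spectra.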

Compound: CCCCC/C=C\C/C=C\CCCCCCCCCC(=O)OC[C@@H](O)COP(=O)([O-])OCC[N+](C)(C)C [LPC 20:2_0:0]
TIMS collisional cross section (sample type: Human plasma, ion (formula + adduct): [C28H54NO7P+HCOO] 1-): 246.6 Å² | TIMS collisional cross section (sample type: Mouse Liver, ion (formula + adduct): [C28H54NO7P+HCOO] 1-): 245.7 ± 0.42 Å²

Compound: CCCCC/C=C\C/C=C\C/C=C\CCCCCCC(=O)OC[C@@H](O)COP(=O)([O-])OCC[N+](C)(C)C [LPC 20:3_0:0]
TIMS collisional cross section (sample type: Human plasma, ion (formula + adduct): [C28H52NO7P+HCOO] 1-): 245.03 ± 0.87 Å² | TIMS collisional cross section (sample type: Human plasma, ion (formula + adduct): [C28H52NO7P-CH3] 1-): 225.9 Å²

Compound: CCCCC/C=C\C/C=C\C/C=C\C/C=C\CCCC(=O)OC[C@@H](O)COP(=O)([O-])OCC[N+](C)(C)C [LPC 20:4_0:0]
TIMS collisional cross section (sample type: Human plasma, ion (formula + adduct): [C28H50NO7P+HCOO] 1-): 243.1 Å² | TIMS collisional cross section (sample type: Human plasma, ion (formula + adduct): [C28H50NO7P-CH3] 1-): 225.9 ± 0.85 Å²

Compound: CC/C=C\C/C=C\C/C=C\C/C=C\C/C=C\CCCC(=O)OC[C@@H](O)COP(=O)([O-])OCC[N+](C)(C)C [LPC 20:5_0:0]
TIMS collisional cross section (sample type: Human plasma, ion (formula + adduct): [C28H48NO7P+HCOO] 1-): 242.5 Å² | TIMS collisional cross section (sample type: Human plasma, ion (formula + adduct): [C28H48NO7P-CH3] 1-): 224.7 Å² | TIMS collisional cross section (sample type: Mouse Liver, ion (formula + adduct): [C28H48NO7P+HCOO] 1-): 241.9 Å²

Compound: CCCCCCCCCCCCCCCCCCCCCC(=O)OC[C@@H](O)COP(=O)([O-])OCC[N+](C)(C)C [LPC 22:0_0:0]
TIMS collisional cross section (sample type: Human plasma, ion (formula + adduct): [C30H62NO7P+HCOO] 1-): 258.6 Å² | TIMS collisional cross section (sample type: Mouse Liver, ion (formula + adduct): [C30H62NO7P+HCOO] 1-): 258.6 Å²

Compound: CCCCC/C=C\C/C=C\CCCCCCCCCCCC(=O)OC[C@@H](O)COP(=O)([O-])OCC[N+](C)(C)C [LPC 22:2_0:0]
TIMS collisional cross section (sample type: Human plasma, ion (formula + adduct): [C30H58NO7P+HCOO] 1-): 254.2 Å²

Compound: CCCCC/C=C\C/C=C\C/C=C\C/C=C\CCCCCC(=O)OC[C@@H](O)COP(=O)([O-])OCC[N+](C)(C)C [LPC 22:4_0:0]
TIMS collisional cross section (sample type: Human plasma, ion (formula + adduct): [C30H54NO7P+HCOO] 1-): 249 ± 0.42 Å² | TIMS collisional cross section (sample type: Human plasma, ion (formula + adduct): [C30H54NO7P-CH3] 1-): 231.5 Å² | TIMS collisional cross section (sample type: Mouse Liver, ion (formula + adduct): [C30H54NO7P+HCOO] 1-): 248.7 Å²

Compound: CC/C=C\C/C=C\C/C=C\C/C=C\C/C=C\C/C=C\CCC(=O)OC[C@@H](O)COP(=O)([O-])OCC[N+](C)(C)C [LPC 22:6_0:0]
TIMS collisional cross section (sample type: Human plasma, ion (formula + adduct): [C30H50NO7P+HCOO] 1-): 246.7 ± 0.42 Å² | TIMS collisional cross section (sample type: Human plasma, ion (formula + adduct): [C30H50NO7P-CH3] 1-): 230.4 Å² | TIMS collisional cross section (sample type: Mouse Liver, ion (formula + adduct): [C30H50NO7P+HCOO] 1-): 247 Å²

Compound: CCCCCCCCCCCCCCCCOCC(O)COP(=O)([O-])OCC[N+](C)(C)C (stereo not drawn) [LPC O- 16:0]
TIMS collisional cross section (sample type: Human plasma, ion (formula + adduct): [C24H52NO6P+HCOO] 1-): 236.6 Å²

Compound: CCCCCCCCCCCCCCCCCCOCC(O)COP(=O)([O-])OCC[N+](C)(C)C (stereo not drawn) [LPC O- 18:0]
TIMS collisional cross section (sample type: Human plasma, ion (formula + adduct): [C26H56NO6P+HCOO] 1-): 243.4 Å²

Compound: CCCCCCCC/C=C\CCCCCCCC(=O)OC[C@@H](O)COP(=O)(O)OCCN [LPE 18:1_0:0]
TIMS collisional cross section (sample type: Human plasma, ion (formula + adduct): [C23H46NO7P-H] 1-): 215.5 ± 1 Å² | TIMS collisional cross section (sample type: Mouse Liver, ion (formula + adduct): [C23H46NO7P-H] 1-): 215.2 ± 1 Å²

More lines, now with the values ahead:

TIMS collisional cross section (sample type: Human plasma, ion (formula + adduct): [C26H54NO6P+HCOO] 1-): 244 Å²
Compound: CCCCCC/C=C\CCCCCCCCCCOC[C@@H](O)COP(=O)([O-])OCC[N+](C)(C)C [LPC O- 18:1_0:0]

TIMS collisional cross section (sample type: Human plasma, ion (formula + adduct): [C21H44NO7P-CH3] 1-): 207.4 Å² | TIMS collisional cross section (sample type: Human plasma, ion (formula + adduct): [C21H44NO7P-H] 1-): 214 ± 5.5 Å² | TIMS collisional cross section (sample type: Mouse Liver, ion (formula + adduct): [C21H44NO7P-H] 1-): 219.47 ± 10 Å²
Compound: CCCCCCCCCCCCCCCC(=O)OC[C@@H](O)COP(=O)(O)OCCN [LPE 16:0_0:0]

TIMS collisional cross section (sample type: Human plasma, ion (formula + adduct): [C21H42NO7P-H] 1-): 208.4 Å² | TIMS collisional cross section (sample type: Mouse Liver, ion (formula + adduct): [C21H42NO7P-H] 1-): 208.4 Å²
Compound: CCCCCC/C=C\CCCCCCCC(=O)OC[C@@H](O)COP(=O)(O)OCCN [LPE 16:1_0:0]

TIMS collisional cross section (sample type: Human plasma, ion (formula + adduct): [C23H48NO7P-CH3] 1-): 214.1 Å² | TIMS collisional cross section (sample type: Human plasma, ion (formula + adduct): [C23H48NO7P-H] 1-): 218.1 Å² | TIMS collisional cross section (sample type: Mouse Liver, ion (formula + adduct): [C23H48NO7P-H] 1-): 217.5 ± 0.6 Å²
Compound: CCCCCCCCCCCCCCCCCC(=O)OC[C@@H](O)COP(=O)(O)OCCN [LPE 18:0_0:0]

TIMS collisional cross section (sample type: Human plasma, ion (formula + adduct): [C23H44NO7P-H] 1-): 212.88 ± 0.79 Å² | TIMS collisional cross section (sample type: Mouse Liver, ion (formula + adduct): [C23H44NO7P-H] 1-): 212.2 Å²
Compound: CCCCC/C=C\C/C=C\CCCCCCCC(=O)OC[C@@H](O)COP(=O)(O)OCCN [LPE 18:2_0:0]

TIMS collisional cross section (sample type: Human plasma, ion (formula + adduct): [C23H42NO7P-H] 1-): 211.6 Å²
Compound: CCCCC/C=C\C/C=C\C/C=C\CCCCC(=O)OC[C@@H](O)COP(=O)(O)OCCN [LPE 18:3_0:0]

TIMS collisional cross section (sample type: Human plasma, ion (formula + adduct): [C25H52NO7P-H] 1-): 224.9 Å² | TIMS collisional cross section (sample type: Mouse Liver, ion (formula + adduct): [C25H52NO7P-CH3] 1-): 220.9 Å²
Compound: CCCCCCCCCCCCCCCCCCCC(=O)OC[C@@H](O)COP(=O)(O)OCCN [LPE 20:0_0:0]

TIMS collisional cross section (sample type: Mouse Liver, ion (formula + adduct): [C25H50NO7P-H] 1-): 222.6 Å²
Compound: CCCCCCCC/C=C\CCCCCCCCCC(=O)OC[C@@H](O)COP(=O)(O)OCCN [LPE 20:1_0:0]

TIMS collisional cross section (sample type: Mouse Liver, ion (formula + adduct): [C25H46NO7P-H] 1-): 217.6 ± 0.42 Å²
Compound: CCCCC/C=C\C/C=C\C/C=C\CCCCCCC(=O)OC[C@@H](O)COP(=O)(O)OCCN [LPE 20:3_0:0]
